Assay results taken from US20240366612A1, “COMPOUNDS AND METHODS FOR MODULATING NUCLEIC ACID SPLICING” (REMIX THERAPEUTICS INC., priority 2021, published 2024).

Experiments:
Assay type in all cases: cell-based
Target C CJ mRNA = assay: Gene panel canonical junction qPCR assay, Target C; conditions: Homo sapiens, larger gene panel, read-out: Target C IC50 (decrease in CJ mRNA levels)
Protocol: (§1) Compounds described herein were used to modulate RNA transcript abundance in cells. The expression of a target mRNA was measured by detecting the formation of an exon-exon junction in the canonical transcript (CJ). A compound mediated exon-inclusion event was detected by observing an increase in formation of a new junction with an alternative exon (AJ). Real-time qPCR assays were used to detect these splicing switches and interrogate the potency of various compounds towards different target genes. A high-throughput real time quantitative PCR (RT-qPCR) assay was developed to measure these two isoforms of the mRNA (CJ and AJ) for exemplary genes, such as HTT, SMN2, and MYB, together with a control housekeeping gene, GAPDH or GUSB or PPIA, used for normalization. Briefly, the A673 or K562 cell line was treated with various compounds described herein (e.g., compounds of Formula (I)). After treatment, the levels of the HTT, MYB, or SMN2 mRNA targets were determined from each sample of cell lysate by cDNA synthesis followed by qPCR.
(§2) The A673 cell line was cultured in DMEM with 10% FBS. Cells were diluted with full growth media and plated in a 96-well plate (15,000 cells in 100 ul media per well). The plate was incubated at 37° C. with 5% CO2 for 24 hours to allow cells to adhere. An 11-point 3-fold serial dilution of the compounds was made in DMSO then diluted in media in an intermediate plate. Compounds were transferred from the intermediate plate to the cell plate with the top dose at a final concentration of 10 uM in the well. Final DMSO concentration was kept at or below 0.25%. The cell plate was returned to the incubator at 37° C. with 5% CO2 for an additional 24 hours.
(§3) The K562 cell line was cultured in IMDM with 10% FBS. For K562, cells were diluted with full growth media and plated in either a 96-well plate (50,000 cells in 50 uL media per well) or a 384-well plate (8,000-40,000 cells in 45 uL media per well). An 11-point 3-fold serial dilution of the compounds were made in DMSO then diluted in media in an intermediate plate. Compound was transferred from the intermediate plate to the cell plate with the top dose at a final concentration of 10 uM in the well. Final DMSO concentration was kept at or below 0.25%. Final volume was 100 uL for 96-well plate and 50 uL for 384-well plate. The cell plate was then placed in an incubator at 37° C. with 5% CO2 for 24 hours.
(§4) The data analysis was performed by first determining the ΔCt vs the housekeeper gene. This ΔCt was then normalized against the DMSO control (ΔΔCt) and converted to RQ (relative quantification) using the 2^(−ΔΔCt) equation. The RQ were then converted to a percentage response by arbitrarily setting an assay window of 3.5 and 4.0 ΔCt for HTT-CJ and MYB-CJ respectively and an assay window of 9 and 3 ΔCt for HTT-AJ and MYB-AJ in 96 well format (50,000 K562 cells/well and 15,000 A673 cells per well) and an assay window of 3 and 4 ΔCt for HTT-CJ and MYB-CJ respectively and an assay window of 5 and 3 ΔCt for HTT-AJ and MYB-AJ respectively in 384 well format (8,000 K562 cells/well example). […] The percentage response was then fitted to the 4 parametric logistic equation to evaluate the concentration dependence of compound treatment. The increase in AJ mRNA is reported as AC50 (compound concentration having […] in AJ increase) while the decrease in CJ mRNA levels is reported as IC50 (compound concentration having 50% response in CJ decrease).
(§5) Additional studies were carried out for a larger panel of genes using the protocol provided above. The junction between flanking upstream and downstream exons was used to design canonical junction qPCR assays. At least one of the forward primer, reverse primer or the CY5-labeled 5′ nuclease probe (with 3′ quencher such as ZEN/Iowa Black FQ) was designed to overlap with the exon junction to capture the CJ mRNA transcript. […]

MYB CJ mRNA = assay: Gene panel canonical junction qPCR assay, MYB; conditions: Homo sapiens, larger gene panel, read-out: MYB IC50 (decrease in CJ mRNA levels)
Protocol: as §1, §2, §3, §4, §5

HTT mRNA = assay: Splicing RT-qPCR assay, HTT canonical (CJ) and alternative (AJ) junction mRNA; conditions: Homo sapiens, A673 or K562 cells, 24 hours treatment; for IC50: decrease in CJ mRNA; for AC50: increase in AJ mRNA
Protocol: as §1
• Cells-to-CT 1-step kit: ThermoFisher A25602, Cells-to-CT lysis reagent: ThermoFisher 4391851C, TaqMan™ Fast Virus 1-Step Master Mix: ThermoFisher 4444436 • GAPDH: VIC-PL, ThermoFisher 4326317E (Assay: Hs99999905_ml)—used for K562/suspension cell lines • GUSB: VIC-PL, ThermoFisher 4326320E (Assay: Hs99999908_ml)—used for K562/suspension cell lines • PPIA: VIC-PL, ThermoFisher 4326316E (Assay: Hs99999904_ml)—used for A673/adherent cell lines
as §2, §3
The cells were then gently washed with 50 uL-100 uL cold PBS before proceeding to addition of lysis buffer. 30 uL-50 μL of room temperature lysis buffer with DNAse I (and optionally RNAsin) was added to each well. Cells were shaken/mixed thoroughly at room temperature for 5-10 minutes for lysis to take place and then 3 uL-5 μL of room temperature stop solution was added and wells were shaken/mixed again. After 2-5 minutes, the cell lysate plate was transferred to ice for RT-qPCR reaction setup. The lysates could also be frozen at −80° C. for later use.
In some cases, a direct lysis buffer was used. An appropriate volume of 3×lysis buffer (10 mM Tris, 150 mM NaCl, 1.5%-2.5% Igepal and 0.1-1 U/uL RNAsin, pH 7.4) was directly added to either K562 or A673 cells in media and mixed by pipetting 3 times. The plates were then incubated at room temperature with shaking/rocking for 20-50 minutes to allow for lysis to take place. After this time, the cell lysate plate was transferred to ice to set up for the RT-qPCR reactions. The lysates could also be frozen at −80° C. for later use. […]

Row | SMILES | IC50 (Target C CJ mRNA) [µM] | IC50 (MYB CJ mRNA) [nM] | IC50 (HTT mRNA) [nM] | AC50 (HTT mRNA) [nM]
1 | Cc1cn2cc(-c3cc(=O)n4cc(N5CCNC6(CC6)C5)sc4n3)cc(F)c2n1 [Compound 207, 7-(8-fluoro-2-methylimidazo[1,2-a]pyridin-6-yl)-2-(4,7-diazaspiro[2.5]octan-7-yl)-5H-thiazolo[3,2-a]pyrimidin-5-one] | > 10 | 1000 to 10000 | > 10000 | > 10000
2 | Cc1cn2cc(-c3nn4c(=O)cc(N5CCNCC5)nc4s3)cc(F)c2n1 [Compound 214, 2-(8-fluoro-2-methylimidazo[1,2-a]pyridin-6-yl)-7-(piperazin-1-yl)-5H-[1,3,4]thiadiazolo[3,2-a]pyrimidin-5-one] | > 10 | 1000 to 10000 | 1000 to 10000 | > 10000
3 | Cc1cn2cc(-c3cc4ncn(C5CCN(C)CC5)c(=O)c4s3)cc(F)c2n1 [Compound 265, 6-{8-fluoro-2-methylimidazo[1,2-a]pyridin-6-yl}-3-(1-methylpiperidin-4-yl)thieno[3,2-d]pyrimidin-4-one] | 0.1 to 1 | 100 to 1000 | 100 to 1000 | 100 to 1000
4 | Cc1cn2cc(-n3cnc4nc(N5CCNCC5)sc4c3=O)cc(C(F)(F)F)c2n1 [Compound 229, 6-(2-methyl-8-(trifluoromethyl)imidazo[1,2-a]pyridin-6-yl)-2-(piperazin-1-yl)thiazolo[4,5-d]pyrimidin-7(6H)-one] | > 10 | > 10000 | > 10000 | > 10000
5 | Cc1cn2nc(-c3cc4ccn(C5CCNCC5)c(=O)c4s3)cc(C)c2n1 [Compound 806, 2-(2,8-dimethylimidazo[1,2-b]pyridazin-6-yl)-6-(piperidin-4-yl)thieno[2,3-c]pyridin-7(6H)-one] | 0.1 to 1 | 100 to 1000 | 100 to 1000 | 100 to 1000
6 | Cn1cc2cc(-n3cnc4nc(N5CCNCC5)sc4c3=O)ccc2n1 [Compound 225, 6-(2-methyl-2H-indazol-5-yl)-2-(piperazin-1-yl)thiazolo[4,5-d]pyrimidin-7(6H)-one] | > 10 | > 10000 | > 10000 | > 10000
7 | Cc1cn2cc(-c3cc4ccn(C5CCNCC5)c(=O)c4s3)cc(F)c2n1 [Compound 804, 2-(8-fluoro-2-methylimidazo[1,2-a]pyridin-6-yl)-6-(piperidin-4-yl)thieno[2,3-c]pyridin-7(6H)-one] | 0.1 to 1 | 100 to 1000 | 100 to 1000 | 100 to 1000
8 | Cc1cn2cc(-c3cc(=O)n4nc(N5CCNC6(CC6)C5)sc4n3)cc(F)c2n1 [Compound 209, 7-(8-fluoro-2-methylimidazo[1,2-a]pyridin-6-yl)-2-(4,7-diazaspiro[2.5]octan-7-yl)-5H-[1,3,4]thiadiazolo[3,2-a]pyrimidin-5-one] | 1 to 10 | 1000 to 10000 | 1000 to 10000 | 1000 to 10000
9 | Cc1cc(-c2cc(=O)n3cc(N4CCN(C)CC4)sc3n2)cc2cn(C)nc12 [Compound 109, 7-(2,7-dimethyl-2H-indazol-5-yl)-2-(4-methylpiperazin-1-yl)-5H-thiazolo[3,2-a]pyrimidin-5-one] | > 10 | > 10000 | > 10000 | > 10000
10 | Cc1cn2cc(-c3cc(=O)n4nc(N5CCN(C)CC5)sc4n3)cc(F)c2n1 [Compound 159, 7-(8-fluoro-2-methylimidazo[1,2-a]pyridin-6-yl)-2-(4-methylpiperazin-1-yl)-5H-[1,3,4]thiadiazolo[3,2-a]pyrimidin-5-one] | 1 to 10 | 1000 to 10000 | 1000 to 10000 | 1000 to 10000
11 | Cc1cn2nc(-c3nc4ncn(C5CCNCC5)c(=O)c4s3)cc(C)c2n1 [Compound 231, 2-(2,8-dimethylimidazo[1,2-b]pyridazin-6-yl)-6-(piperidin-4-yl)thiazolo[4,5-d]pyrimidin-7(6H)-one] | 1 to 10 | 100 to 1000 | 100 to 1000 | 100 to 1000
12 | Cc1cn2cc(-c3nn4c(=O)cc(N5CCNC6(CC6)C5)nc4s3)cc(F)c2n1 [Compound 216, 2-(8-fluoro-2-methylimidazo[1,2-a]pyridin-6-yl)-7-(4,7-diazaspiro[2.5]octan-7-yl)-5H-[1,3,4]thiadiazolo[3,2-a]pyrimidin-5-one] | 1 to 10 | 1000 to 10000 | 1000 to 10000 | 1000 to 10000
13 | Cc1cc(-c2nn3c(=O)cc(N4CCN(C)CC4)nc3s2)cc2cn(C)nc12 [Compound 210, 2-(2,7-dimethyl-2H-indazol-5-yl)-7-(4-methylpiperazin-1-yl)-5H-[1,3,4]thiadiazolo[3,2-a]pyrimidin-5-one] | 1 to 10 | 1000 to 10000 | 1000 to 10000 | 1000 to 10000
14 | Cc1cn2cc(-c3nn4c(=O)cc(N5CCN(C)C6(CC6)C5)nc4s3)cc(F)c2n1 [Compound 218, 2-(8-fluoro-2-methylimidazo[1,2-a]pyridin-6-yl)-7-(4-methyl-4,7-diazaspiro[2.5]octan-7-yl)-5H-[1,3,4]thiadiazolo[3,2-a]pyrimidin-5-one] | 1 to 10 | 1000 to 10000 | 1000 to 10000 | 1000 to 10000
15 | COc1cc(-c2cc3ncn(C4CCNCC4)c(=O)c3s2)cnn1 [Compound 260] | 1 to 10 | 1000 to 10000 | 1000 to 10000 | 1000 to 10000
16 | Cc1cc(-c2cc(=O)n3nc(N4CCN(C)CC4)sc3n2)cc2cn(C)nc12 [Compound 157, 7-(2,7-dimethyl-2H-indazol-5-yl)-2-(4-methylpiperazin-1-yl)-5H-[1,3,4]thiadiazolo[3,2-a]pyrimidin-5-one] | > 10 | > 10000 | > 10000 | > 10000
17 | Cc1cn2nc(-c3cn4c(=O)cc(N5CCNC6(CC6)C5)nc4s3)cc(C)c2n1 [Compound 212, 2-(2,8-dimethylimidazo[1,2-b]pyridazin-6-yl)-7-(4,7-diazaspiro[2.5]octan-7-yl)-5H-thiazolo[3,2-a]pyrimidin-5-one] | 1 to 10 | 1000 to 10000 | 1000 to 10000 | 1000 to 10000
